# Assay results: patent publication US20070213301A1 (ACHILLION PHARMACEUTICALS, INC., priority 2006, published 2007)
# Tested on: HCV replicon
# Assay: HCV replicon replication assay (NPTII ELISA)
# Assay type: cell-based, Hepatitis C virus (Huh-7 cells)
# Settings: Hepatitis C virus, Huh-7, 72 h, inhibition of HCV replicon replication in Huh-7 HCV replicon-containing cells, three days incubation, NPT level by ELISA; read-out: EC50
# Method: Compounds claimed herein are tested for the ability to inhibit viral replication of the Hepatitis C replicon in cultured cells in which the HCV replicon construct has been incorporated. The HCV replicon system was described by Bartenschlager, et. al (Science, 285, pp. 110-113 (1999)). The replicon system is predictive of in vivo anti-HCV activity; compounds that are active in humans uniformly evidence activity in the replicon assay.
# In this assay HCV replicon containing cells are treated with different concentrations of the test compound to ascertain the ability of the test compound to suppress replication of the HCV replicon. As a positive control, HCV replicon-containing cells are treated with different concentrations of interferon alpha, a known inhibitor of HCV replication. The replicon assay system includes Neomycin Phosphotransferase (NPT) as a component of the replicon itself in order to detect the transcription of replicon gene products in the host cell. Cells in which the HCV replicon is actively replicating have high levels of NPT; the level of NPT is proportional to HCV replication. […] The NPT level of each sample is measured using a captured ELISA.
# The HCV replicon contains, 5′-3′, the HCV-IRES, the neomycin phosphotransferase (neo) gene, the IRES of encephalomyocarditis virus, which directs translation of HCV sequences NS3 to NS5B, and the 3′-NTR. The sequence of the HCV replicon has been deposited in GenBank (Accession no. AJ242652).
# The replicon is transfected into Huh-7 cells using standard methods such as electroporation.
# The cells are then seeded onto 96-well plates at a density of 6000-7500 cells/100 microliters/well (6-7.5×10^5 cells/10 ml/plate). The plates are then incubated at 37° C. in a 5% CO2 incubator.
# HCV replicon-containing cells are rinsed with once PBS once; 2 mls of trypsin are then added. Cells are incubated at 37° C. in a 5% CO2 incubator for 3-5 minutes. 10 mls of complete medium is added to stop the reaction. Cells are blown gently, put into a 15 ml tube, and spun at 1200 rpm for four minutes. The trypsin/medium solution is removed and 5 mls of medium (500 ml DMEM (high glucose)) from BRL catalog #12430-054; 50 mls 10% FBS, 5% Geneticin G418 (50 mg/ml, BRL catalog #10131-035), 5 ml MEM non-essential amino acids (100× BRL #11140-050) and 5 ml pen-strep (BRL #15140-148) is added. The cells and media are mixed carefully
# Cells are plated with screening medium (500 ml DMEM (BRL #21063-029), 50 ml FBS (BRL #10082-147) and 5 ml MEM non-essential amino acid (BRL #11140-050) at 6000-7500 cells/100 μl/well of 96 well plate (6-7.5×10^5 cells/10 ml/plate). Plates are placed into 37° C. 5% CO2 incubator overnight.
# The following morning, drugs (test compounds or interferon alpha) are diluted in 96 well U bottom plates with media or DMSO/media, depending on the final concentration chosen for screening. Generally for 6 concentrations of each test compounds ranging from 10 micromolar to 0.03 micromolar are applied. 100 μl of the test compound dilution is placed in wells of the 96 well plate containing the HCV replicon cells. Media without drug is added to some wells as a negative controls. DMSO is known to affect cell growth. Therefore, if drugs diluted in DMSO are used, all wells, including negative control (media only) and positive control (interferon alpha) wells, must contain the same concentration of DMSO, for single dose screening. The plates are incubated at 37° C. in a humidified 5% CO2 environment for three days.
# On day four, the NTPII assay is quantitated. The medium is poured from the plates and the plates are washed once in 200 μl of PBS. The PBS is then decanted and the plates tapped in a paper towel to remove any remaining PBS. Cells are fixed in situ with 100 μl/well of pre-cooled (−20° C.) methanol:acetone (1:1) and the plates are placed at −20° C. for 30 minutes.
# The fixing solution is poured from the plates and the plates allowed to air-dry completely (approximately one hour). […]
row,SMILES,EC50 [nM]
1,"CCCCCOc1ccc(N(C(=O)C(=O)OC)c2nc(-c3cccnc3)cs2)cc1C(F)(F)F [Compound 28, methyl 2-oxo-2-((4-(pentyloxy)-3-(trifluoromethyl)phenyl)(4-(pyridin-3-yl)thiazol-2-yl)amino)acetate]",< 1000
2,"CCCCCOc1ccc(N(C(C)=O)c2nc(CNC(C)=O)cs2)cc1C(F)(F)F [Compound 29, N-(4-(acetamidomethyl)thiazol-2-yl)-N-(4-(pentyloxy)-3-(trifluoromethyl)phenyl)acetamide]",1000 to 10000
3,"CCCCCOc1ccc(N(C(=O)C(=O)OC)c2nc(C(=O)Nc3cccnc3)cs2)cc1C(F)(F)F [Compound 30, methyl 2-oxo-2-((4-(pentyloxy)-3-(trifluoromethyl)phenyl)(4-(pyridin-3-ylcarbamoyl)thiazol-2-yl)amino)acetate]",< 1000
4,"CCCCCOc1ccc(N(C(=O)OC)c2nc(-c3cccnc3)cs2)cc1C(F)(F)F [Compound 31, methyl 4-(pentyloxy)-3-(trifluoromethyl)phenyl(4-(pyridin-3-yl)thiazol-2-yl)carbamate]",< 1000
5,"CCCCCOc1ccc(N(C(=O)C2CCCCC2)c2nc(-c3cccnc3)cs2)cc1C(F)(F)F [Compound 32, N-(4-(pentyloxy)-3-(trifluoromethyl)phenyl)-N-(4-(pyridin-3-yl)thiazol-2-yl)cyclohexanecarboxamide]",< 1000
6,"CCCCCOc1ccc(N(C(=O)COC(C)=O)c2nc(-c3cccnc3)cs2)cc1C(F)(F)F [Compound 33, 2-oxo-2-((4-(pentyloxy)-3-(trifluoromethyl)phenyl)(4-(pyridin-3-yl)thiazol-2-yl)amino)ethyl acetate]",< 1000
7,"CCCCCOc1ccc(N(C(=O)c2cc(C)on2)c2nc(-c3cccnc3)cs2)cc1C(F)(F)F [Compound 34, 5-methyl-N-(4-(pentyloxy)-3-(trifluoromethyl)phenyl)-N-(4-(pyridin-3-yl)thiazol-2-yl)isoxazole-3-carboxamide]",< 1000
8,"CCCCCOc1ccc(N(C(=O)C(=O)OC)c2nc(-c3ccncc3)cs2)cc1C(F)(F)F [Compound 35, methyl 2-oxo-2-((4-(pentyloxy)-3-(trifluoromethyl)phenyl)(4-(pyridin-4-yl)thiazol-2-yl)amino)acetate]",< 1000
9,"CCCCCOc1ccc(N(C(=O)OC)c2nc(-c3ccncc3)cs2)cc1C(F)(F)F [Compound 36, methyl 4-(pentyloxy)-3-(trifluoromethyl)phenyl(4-(pyridin-4-yl)thiazol-2-yl)carbamate]",< 1000
10,"CCCCCOc1ccc(N(C(=O)C(=O)OC)c2nc(-c3ccc(F)cc3F)cs2)cc1C(F)(F)F [Compound 37, methyl 2-((4-(2,4-difluorophenyl)thiazol-2-yl)(4-(pentyloxy)-3-(trifluoromethyl)phenyl)amino)-2-oxoacetate]",< 1000
11,"CCCCCOc1ccc(N(C(=O)C(=O)OC)c2nc(-c3ccc(F)cc3)cs2)cc1C(F)(F)F [Compound 38, methyl 2-((4-(4-fluorophenyl)thiazol-2-yl)(4-(pentyloxy)-3-(trifluoromethyl)phenyl)amino)-2-oxoacetate]",< 1000
12,"CCCCCCCCc1ccc(N(C(=O)C(=O)OC)c2nc(-c3cccnc3)cs2)cc1 [Compound 39, methyl 2-((4-octylphenyl)(4-(pyridin-3-yl)thiazol-2-yl)amino)-2-oxoacetate]",< 1000
13,"CCCCCCCOc1ccc(N(C(=O)C(=O)OC)c2nc(-c3cccnc3)cs2)cc1 [Compound 40, methyl 2-((4-(heptyloxy)phenyl)(4-(pyridin-3-yl)thiazol-2-yl)amino)-2-oxoacetate]",< 1000
14,"CCCCCOc1ccc(N(C(=O)CN(C)C)c2nc(-c3cccnc3)cs2)cc1C(F)(F)F [Compound 41, 2-(dimethylamino)-N-(4-(pentyloxy)-3-(trifluoromethyl)phenyl)-N-(4-(pyridin-3-yl)thiazol-2-yl)acetamide]",< 1000
15,"CCCCCOc1ccc(N(C(=O)CC(=O)OC)c2nc(-c3ccc(F)cc3)cs2)cc1F [Compound 42, methyl 3-((3-fluoro-4-(pentyloxy)phenyl)(4-(4-fluorophenyl)thiazol-2-yl)amino)-3-oxopropanoate]",< 1000
16,"CCCCCOc1ccc(N(C(=O)CC(=O)OC)c2nc(-c3ccc(F)cc3)cs2)cc1C(F)(F)F [Compound 43, methyl 3-((4-(4-fluorophenyl)thiazol-2-yl)(4-(pentyloxy)-3-(trifluoromethyl)phenyl)amino)-3-oxopropanoate]",< 1000
17,"CCCCCCCCOc1ccc(N(C(=O)CC(=O)OC)c2nc(-c3ccc(F)cc3)cs2)cc1 [Compound 44, methyl 3-((4-(4-fluorophenyl)thiazol-2-yl)(4-(octyloxy)phenyl)amino)-3-oxopropanoate]",< 1000
18,"CCCCCOc1ccc(N(C(=O)C(=O)OC)c2nc(-c3ccc(F)cc3)cs2)cc1F [Compound 45, methyl 2-((3-fluoro-4-(pentyloxy)phenyl)(4-(4-fluorophenyl)thiazol-2-yl)amino)-2-oxoacetate]",< 1000
19,"CCCCCOc1ccc(N(C(=O)OC)c2nc(-c3ccc(F)cc3)cs2)cc1F [Compound 46, methyl 3-fluoro-4-(pentyloxy)phenyl(4-(4-fluorophenyl)thiazol-2-yl)carbamate]",1000 to 10000
20,"CCCCCOc1ccc(N(C(=O)OC)c2nc(-c3ccc(F)cc3)cs2)cc1C(F)(F)F [Compound 47, methyl 4-(4-fluorophenyl)thiazol-2-yl(4-(pentyloxy)-3-(trifluoromethyl)phenyl)carbamate]",< 1000
21,"CCCCCCCCOc1ccc(N(C(=O)OC)c2nc(-c3ccc(F)cc3)cs2)cc1 [Compound 48, methyl 4-(4-fluorophenyl)thiazol-2-yl(4-(octyloxy)phenyl)carbamate]",1000 to 10000
22,"CCCCCOc1ccc(N(C(N)=O)c2nc(-c3cccnc3)cs2)cc1C(F)(F)F [Compound 49, 1-(4-(pentyloxy)-3-(trifluoromethyl)phenyl)-1-(4-(pyridin-3-yl)thiazol-2-yl)urea]",< 1000
23,"CCCCCOc1ccc(N(C=O)c2nc(-c3cccnc3)cs2)cc1C(F)(F)F [Compound 50, N-(4-(pentyloxy)-3-(trifluoromethyl)phenyl)-N-(4-(pyridin-3-yl)thiazol-2-yl)formamide]",< 1000
24,"CCCCCN(C)c1ccc(N(C(=O)COC(C)=O)c2nc(-c3cccnc3)cs2)cc1C(F)(F)F [Compound 51, 2-((4-(methyl(pentyl)amino)-3-(trifluoromethyl)phenyl)(4-(pyridin-3-yl)thiazol-2-yl)amino)-2-oxoethyl acetate]",< 1000
25,"CCCCCN(C)c1ccc(N(C(=O)c2cc(C)on2)c2nc(-c3cccnc3)cs2)cc1C(F)(F)F [Compound 52, 5-methyl-N-(4-(methyl(pentyl)amino)-3-(trifluoromethyl)phenyl)-N-(4-(pyridin-3-yl)thiazol-2-yl)isoxazole-3-carboxamide]",< 1000
26,"CCCCCN(C)c1ccc(N(C(=O)C(=O)OC)c2nc(-c3cccnc3)cs2)cc1C(F)(F)F [Compound 53, methyl 2-((4-(methyl(pentyl)amino)-3-(trifluoromethyl)phenyl)(4-(pyridin-3-yl)thiazol-2-yl)amino)-2-oxoacetate]",< 1000
27,"CCCCCOc1ccc(N(C(=O)COC(C)=O)c2nc(-c3ccc(F)c(F)c3)cs2)cc1C(F)(F)F [Compound 54, 2-((4-(3,4-difluorophenyl)thiazol-2-yl)(4-(pentyloxy)-3-(trifluoromethyl)phenyl)amino)-2-oxoethyl acetate]",< 1000
